# Assay results: patent US20230270753A1, “COMBINATIONS OF GABAA ALPHA 5 AGONISTS AND SV2A INHIBITORS AND METHODS OF USING IN THE TREATMENT OF COGNITIVE IMPAIRMENT” (AGENEBIO, INC., priority 2020, published 2023)
# Columns and labels:
# [1] = system: aged-impaired (AI) rats; experiment: Radial Arm Maze task, one-hour delay, levetiracetam (Example 1); type: in vivo, rat
# Experimental: The effects of levetiracetam on the spatial memory retention of aged-impaired (AI) rats were assessed in a Radial Arm Maze (RAM) behavioral task using vehicle control and five different dosage levels of levetiracetam (1.25 mg/kg/day, 2.5 mg/kg/day, 5 mg/kg/day, 10 mg/kg/day and 20 mg/kg/day). RAM behavioral tasks were performed on ten AI rats. All six treatment conditions were tested on all ten rats, as described above for the MWM test. The RAM apparatus used consisted of eight equidistantly spaced arms. An elevated maze arm (7 cm width×75 cm length) projected from each facet of an octagonal center platform (30 cm diameter, 51.5 cm height). […] A food well (4 cm diameter, 2 cm deep) was located at the distal end of each arm. Froot Loops' (Kellogg Company) were used as rewards. […] Numerous extra maze cues surrounding the apparatus were also provided. The AI rats were initially subjected to a pre-training test (Chappell et al. Neuropharmacology 37: 481-487, 1998). […] In the habituation phase, rats were familiarized to the maze for an 8-minute session on four consecutive days. […] To counterbalance any potential bias, drug effect was assessed using ascending-descending dose series, i.e., the dose series was given first in an ascending order and then repeated in a descending order. […]
# [2] = system: aMCI subjects; experiment: fMRI activity of medial temporal lobe subregions during the explicit 3-alternative forced choice task (Examples 2 and 3); type: in vivo, human
# Experimental: A within-subjects trial of 8 weeks duration, involving 17 amnestic MCI (aMCI) subjects and 17 age-matched controls with a low dose treatment of levetiracetam is conducted. […] Age-matched control subjects treated with placebo serve as a further control. […] The […]
# [3] = system: aMCI subjects; experiment: Explicit 3-alternative forced choice task performance (Examples 2 and 3); type: in vivo, human
# [4] = system: aMCI subjects; experiment: Neuropsychological tests outside the scanner (Buschke, Benton, Verbal Paired Associates); type: in vivo, human; conditions: levetiracetam 125 mg twice a day for two weeks
# [5] = system: somatostatin in DG hilus; experiment: Somatostatin immunohistochemistry, hilar interneuron counts (Example 5); type: in vivo, rat; conditions: levetiracetam 10 mg/kg/day in osmotic minipumps for four weeks; aged-impaired rats
# Text: Tissue was labeled with anti-SOM antiserum (Santa Cruz Biotechnology; cat. no. SC7819-P) using an established immunoperoxidase protocol and tissue sections were processed concurrently to minimize inter-replication variability (Haberman et al., 2009). The anti-SOM antiserum can detect somatostatin. Briefly, sections were washed in 0.1M phosphate-buffered saline (PBS) to remove cryoprotectant, and endogenous peroxidases were quenched in 0.3% H2O2 in PBS. After additional PBS washes, sections were blocked in 5% normal horse serum in PBS with 0.3% Triton. Sections were then incubated with primary antibody at a dilution of 1:1600 in PBS containing 0.15% Triton and 3% normal serum for 72 hours at 4° C. with agitation. […] The secondary antibody was detected with avidin-biotin complex (ABC Elite; Vector Laboratories Inc., Burlingame, Calif.) and the avidin-biotin complex was visualized with nickel-enhanced diaminobenzadine (Vector Laboratories Inc., Burlingame, Calif.). […]
# Interneuron quantification was performed using a Zeiss Axioplan 2 microscope equipped with a motorized stage. […] Neuron counts were analyzed as the total number of hilar interneurons per hippocampal section for each rat.
# [6] = system: reelin in Entorhinal Cortex (EC2); experiment: Reelin mRNA in situ hybridization in entorhinal cortex (Example 5); type: in vivo, rat
# [7] = following oral administration; cited from earlier work
structure (smiles),measurement,setting,value
"CC[C@@H](C(N)=O)N1CCCC1=O [levetiracetam, (2S)-2-(2-oxopyrrolidin-1-yl)butanamide]",effective doses of levetiracetam in the animal model (radial arm maze errors),"[1]; AI rats, levetiracetam on its own",5 to 10 mg/kg
same,reduction of the number of errors in the radial arm maze,[1]; levetiracetam on its own at 1.25 mg/kg or 2.5 mg/kg,not at 1.25 mg/kg or 2.5 mg/kg
same,DG/CA3 hyperactivity during memory judgments,"[2]; levetiracetam 62.5 mg BID for two weeks, aMCI subjects (N=20)",does not significantly reduce
same,entorhinal cortex (EC) activity during memory judgments,"[2]; levetiracetam 125 mg twice a day for two weeks, aMCI subjects",increases EC activity
same,DG/CA3 activity during lure stimuli correctly identified as similar,"[2]; levetiracetam 125 mg twice a day for two weeks, vs placebo in same aMCI subjects",reduces DG/CA3 hyper-activity
same,DG/CA3 hyperactivity during memory judgments,"[2]; levetiracetam 250 mg BID for two weeks, aMCI subjects (N=17)",does not significantly reduce
same,performance in the explicit 3-alternative forced choice task,[3]; levetiracetam 62.5 mg BID for two weeks,improves significantly
same,performance in the explicit 3-alternative forced choice task,[3]; levetiracetam 125 mg twice a day for two weeks,improves significantly
same,performance in the explicit 3-alternative forced choice task,[3]; levetiracetam 250 mg BID for two weeks,does not significantly improve
same,"performance in Buschke Selective Reminding Test-Delayed Recall, Benton Visual Retention Test, Verbal Paired Associates Test-Recognition and -Delayed Recall",[4],fail to rescue performance
same,levels of somatostatin in DG hilus (SOM-immunoreactive hilar neurons),[5],restores the levels of somatostatin in DG hilus
same,reelin mRNA expression in the lateral entorhinal cortex vs AI-VEH,"[6]; levetiracetam 10 mg/kg/day for 28 days, AI rats",significantly increased the expression of reelin
same,levels of reelin in Entorhinal Cortex (EC2),"[6]; levetiracetam 10 mg/kg/day in osmotic minipumps for four weeks, aged-impaired rats",restores the levels of reelin in Entorhinal Cortex (EC2)
same,time of peak plasma concentrations,[7],about 1 hour
